The target of one assay is T1, human TRPA1 (Homo sapiens, UniProt O75762, K186N/R3C/R58T).
T1 construct: expressed in transfected cells; pcDNA3.1(+) vector)
Kind of assay: Measurement of TRPA1 activation activity (intracellular calcium, FLIPR, HEK293 cells stably expressing human TRPA1). Format: cell-based. Conditions: change of intracellular calcium concentration. A digest of the protocol: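 HEK293 cells stably expressing cloned human TRPA1 (G418-selected) were loaded with Fluo4-AM for 1 h in HBSS/HEPES pH 7.4 buffer containing probenecid. Intracellular calcium change after compound addition was recorded by FLIPR. EC50 values were calculated from these responses.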
(Calcium flux is commonly read through the fluorescence of an indicator in the cells.)

The test system of the next assay is gastric emptying of rats. As to the kind of experiment: Activity to gastric emptying of TRPA1 agonist (phenol red, rats). Format: in vivo. Conditions: Rattus norvegicus; male wistar rats, oral administration, versus control animals; read-out: ED50 (amount which suppresses 50% of gastric emptying). From the text:
When EC cell is stimulated by content of a gastrointestinal tract, 5-HT is secreted. The secreted 5-HT promotes the secretion or motility through a 5-HT receptor present in intestinal nerve plexus or gastrointestinal smooth muscle. The secreted 5-HT is instantly taken into a cell by its specific transporter, and is metabolized by […]. Thus, while it is considerably difficult to directly measure the secreted 5-HT concentration, it has been known that gastric emptying is delayed as a physiological activity through 5-HT in rodents. In order to verify in vivo activity through 5-HT of the compound to be tested, activity to gastric emptying of rats by various TRPA1 agonists was studied.
In the experiment, male wistar rats (body weight 290 to 360 g) were used. The animals were purchased from Japan SLC (Shizuoka). The animals were allowed to drink water freely under a constitutive environment.
5 minutes after the medicine was orally administered, 0.05% phenol red solution (1.5 mL) was orally administered. After 15 minutes, rats were put painlessly to death by cervical vertebral dislocation, their stomachs were exenterated, and phenol red was eluted with 0.1M aqueous NaOH solution (5 mL) from the exenterated stomachs. 20% aqueous trichloroacetic acid solution (0.1 mL) was added to the NaOH solution (0.5 mL), followed by stirring and centrifugation at 15,000 rpm, at 4° C., for 10 minutes. 0.5M aqueous NaOH solution (0.2 mL) was added to the supernatant (0.05 mL), followed by stirring, and absorbance at 560 nm was measured using an absorption spectrometer (spectrometer spectramax M2; Molecular Devices, CA, USA).
A gastric emptying was calculated by the following calculating formula.
Gastric emptying (%)=100−(A/B)×100
A: amount of phenol red remaining in stomach
B: amount of phenol red remaining in stomach just after administering phenol red
ED50 values (amount of the compound to be tested which suppresses 50% of gastric emptying, with respect to the control animals without administering the compound to be tested) of some of the compounds of the formula (I) are shown in Table 2. In this connection, comparative compound 1 and comparative compound 2 are (3E)-1-methyl-3-(2-oxopropyridene)-1,3-dihydro-2H-indol-2-one, and (3E)-3-(2-oxopropyridene)-1-prop-2-in-1-yl-1,3-dihydro-2H-indol-2-one described in Non Patent Document 4 above, and has the following chemical structures, respectively.

pEC50: −log10 of the molar value.

T1 sequence (O75762 whole entry R3C/R58T/K186N): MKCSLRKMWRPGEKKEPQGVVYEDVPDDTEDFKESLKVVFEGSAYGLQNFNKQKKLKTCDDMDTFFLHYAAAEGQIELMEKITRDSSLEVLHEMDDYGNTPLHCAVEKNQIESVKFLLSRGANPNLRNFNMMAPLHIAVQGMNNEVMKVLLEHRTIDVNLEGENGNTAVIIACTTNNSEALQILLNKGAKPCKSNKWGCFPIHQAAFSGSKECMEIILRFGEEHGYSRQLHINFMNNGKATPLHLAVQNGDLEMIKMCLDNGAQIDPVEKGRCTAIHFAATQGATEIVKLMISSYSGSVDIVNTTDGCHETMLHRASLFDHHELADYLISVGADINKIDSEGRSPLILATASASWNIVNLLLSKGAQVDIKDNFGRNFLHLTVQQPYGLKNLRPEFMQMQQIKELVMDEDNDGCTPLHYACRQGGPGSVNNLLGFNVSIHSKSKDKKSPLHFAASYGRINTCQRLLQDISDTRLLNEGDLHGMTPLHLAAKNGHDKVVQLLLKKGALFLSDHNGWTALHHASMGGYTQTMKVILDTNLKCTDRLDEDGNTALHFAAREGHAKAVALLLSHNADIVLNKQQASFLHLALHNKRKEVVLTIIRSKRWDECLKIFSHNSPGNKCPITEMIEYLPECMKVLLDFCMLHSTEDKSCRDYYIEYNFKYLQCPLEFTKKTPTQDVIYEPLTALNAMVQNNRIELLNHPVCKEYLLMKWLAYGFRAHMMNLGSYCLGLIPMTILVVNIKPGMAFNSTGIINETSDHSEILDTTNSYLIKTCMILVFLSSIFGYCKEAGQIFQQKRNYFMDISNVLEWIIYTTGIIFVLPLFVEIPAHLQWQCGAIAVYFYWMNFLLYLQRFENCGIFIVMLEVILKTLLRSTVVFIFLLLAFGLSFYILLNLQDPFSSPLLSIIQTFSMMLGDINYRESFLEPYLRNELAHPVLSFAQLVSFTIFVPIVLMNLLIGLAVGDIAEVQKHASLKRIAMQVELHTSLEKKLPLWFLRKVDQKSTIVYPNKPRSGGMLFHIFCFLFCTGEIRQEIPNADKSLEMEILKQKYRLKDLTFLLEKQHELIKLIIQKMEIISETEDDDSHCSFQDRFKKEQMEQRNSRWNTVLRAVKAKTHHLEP

In general, pEC50 refers to the EC50 on a negative log10 scale, so that one unit is a factor of ten. By ED50 is commonly meant the midpoint of the dose-response relation. In the case of `O=C(O)/C=C1/C(=O)N(CC2CCCC2)c2c(F)cccc21` [Example 28, (2E)-[1-(cyclopentylmethyl)-7-fluoro-2-oxo-1,2-dihydro-3H-indol-3-ylidene]acetic acid], the pEC50 at human TRPA1 was 6.29. The ED50 in the assay on gastric emptying of rats came to 0.44 mg/kg.

The record behind these values is patent US20110009379A1, “INDOLINONE COMPOUND” (ASTELLAS PHARMA INC., priority 2008, published 2011).
